Legend:
[1] = system: isolated rat soleus muscles; test: Measurement of force in an in vitro model: recovery of nerve-stimulated contractile force of isolated soleus nerve-muscle preparations after tubocurarine; settings: for Point increase (%): percentage of the initial force restored, 50 µM test compound, after 40 mins of compound exposure, in continued presence of 115 nM tubocurarine (90 mins pre-incubation), 30°C
Excerpt: • The terms "C1-3 alkyl" and "C1-5 alkyl" refers to a branched or unbranched alkyl group having from […] carbon atoms respectively, including but not limited to methyl, ethyl, prop-1-yl, prop-2-yl, 2-methyl-prop-1-yl, 2-methyl-prop-2-yl, 2,2-dimethyl-prop-1-yl, but-1-yl, but-2-yl, 3-methyl-but-1-yl, 3-methyl-but-2-yl, pent-1-yl, pent-2-yl and pent-3-yl. • The term "C3-5 cycloalkyl" and "C3-6 cycloalkyl" refers to a group having three to five or three to six carbon atoms respectively including a monocyclic or bicyclic carbocycle, including but not limited to cyclopropyl, cyclobutyl, cyclopentyl and cyclohexyl. • The term "C2-5 alkenyl" refers to a branched or unbranched alkenyl group having from two to five carbon atoms, two of which are connected by a double bond, including but not limited to ethenyl, propenyl, isopropenyl, butenyl, isobutenyl, pentenyl and isopentenyl. • The term "C2-5 alkynyl" refers to a branched or unbranched alkynyl group having from […] carbon atoms, two of which are connected by a triple bond, including but not limited to ethynyl, prop-1-ynyl, prop-2-ynyl, but-1-ynyl, but-2-ynyl, but-3-ynyl, buta-1,3-diynyl, pent-1-ynyl, pent-2-ynyl, pent-3-ynyl, pent-4-ynyl, penta-2,4-diynyl and penta-1,3-diynyl. • The term "5 membered aromatic heterocycle" refers to an aromatic group having five carbon atoms wherein between 1 and 3 carbon atoms in the ring have been replaced with a heteroatom selected from the group comprising nitrogen, sulphur and oxygen. Binding to the heterocycle may be at the position of the heteroatom or via a carbon atom of the heterocycle. […] The term "plasma half-life" is the time that it takes the compound to lose one-half of its pharmacologic activity in the blood plasma. • The term "treatment" refers to the combating of a disease or disorder. "Treatment" or "treating," as used herein, includes any desirable effect on the symptoms or pathology of a disease or condition as described herein, and may include even minimal changes or improvements in one or more measurable markers of the disease or condition being treated. […] In some embodiments, the term "treatment" encompasses amelioration and prevention. • The term "amelioration" refers to moderation in the severity of the symptoms of a disease or condition. Improvement in a patient's condition, or the activity of making an effort to correct, or at least make more acceptable, conditions that are difficult to endure related to patient's conditions is considered "ameliorative" treatment. • The term "prevent" or "preventing" refers to precluding, averting, obviating, forestalling, stopping, or hindering something from happening, especially by advance action. • The term "reversal" or "reversing" refers to the ability of a compound to restore nerve-stimulated force in skeletal muscle exposed either ex vivo or in vivo to a non-depolarizing neuromuscular blocking agent or another pharmaceutical that is able to depress neuromuscular transmission • The term "non-depolarizing blockers" refers to pharmaceutical agents that antagonize the activation of acetylcholine receptors at the post-synaptic muscle fibre membrane by blocking the acetylcholine binding site on the receptor.
The current disclosure relates to compounds that inhibit CIC-1 ion channels and increase muscle excitability and thereby improve muscle function in clinical conditions where muscle activation is failing. Such conditions result in loss of contractile function of skeletal muscle, weakness and excessive fatigue. In this series of experiments the compounds were tested for their ability to restore contractile function of isolated rat muscle when the neuromuscular transmission had been compromised akin to neuromuscular disorders.
Experimentally, soleus muscles from 4-5 wk old rats were isolated with the motor nerve remaining attached. […]

human CIC-1 channels = biological target: T1, human CIC-1 channels (Homo sapiens, UniProt P35523); test: Automated whole cell patch-clamp (Qpatch 16) on CHO cells expressing human CIC-1; type: cell-based; settings: difference in half activation voltage between cell patches treated intracellularly with compound and control (vehicle) patches; positive shift reflects CIC-1 inhibition
T1 construct: host or cells: CHO (Chinese hamster ovary) cells, constitutive expression
T1 sequence (P35523 whole entry): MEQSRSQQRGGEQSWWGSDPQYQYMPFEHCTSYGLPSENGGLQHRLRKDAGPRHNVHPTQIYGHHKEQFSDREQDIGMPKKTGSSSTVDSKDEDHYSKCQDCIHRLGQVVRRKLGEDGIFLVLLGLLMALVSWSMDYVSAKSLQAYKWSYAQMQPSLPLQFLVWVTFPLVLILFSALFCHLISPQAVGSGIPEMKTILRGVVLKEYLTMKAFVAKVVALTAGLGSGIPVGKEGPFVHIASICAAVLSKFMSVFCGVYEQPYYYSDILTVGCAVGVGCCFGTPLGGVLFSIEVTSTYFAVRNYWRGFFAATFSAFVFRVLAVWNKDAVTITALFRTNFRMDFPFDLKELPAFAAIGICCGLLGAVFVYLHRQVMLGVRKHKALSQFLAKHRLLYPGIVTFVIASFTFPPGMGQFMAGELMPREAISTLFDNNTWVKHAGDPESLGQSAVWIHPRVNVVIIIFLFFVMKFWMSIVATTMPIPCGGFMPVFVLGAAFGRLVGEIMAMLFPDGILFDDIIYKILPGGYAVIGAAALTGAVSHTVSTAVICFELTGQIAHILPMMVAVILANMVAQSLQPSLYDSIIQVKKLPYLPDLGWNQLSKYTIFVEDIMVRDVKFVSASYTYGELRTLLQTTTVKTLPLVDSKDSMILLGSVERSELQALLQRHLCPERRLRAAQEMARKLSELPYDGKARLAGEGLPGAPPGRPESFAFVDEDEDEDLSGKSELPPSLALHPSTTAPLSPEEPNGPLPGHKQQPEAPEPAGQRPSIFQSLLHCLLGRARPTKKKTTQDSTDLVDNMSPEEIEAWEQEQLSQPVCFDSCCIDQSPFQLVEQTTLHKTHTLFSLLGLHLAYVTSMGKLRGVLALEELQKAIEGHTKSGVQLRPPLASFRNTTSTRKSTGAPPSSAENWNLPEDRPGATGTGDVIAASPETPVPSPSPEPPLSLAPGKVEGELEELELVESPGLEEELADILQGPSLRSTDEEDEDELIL
Description: Experiments were performed using an automated patch clamp system that allowed high throughput testing of whole cell patches together with both intracellular and extracellular addition of compound.
Automated whole cell patch clamp experiments were performed with the Qpatch 16 system (Sophion Bioscience, Ballerup, Denmark) at room temperature. Data acquisition and analysis were performed in the Qassay software (ver. 5.6, Odense).
To evoke CIC-1 currents in whole cell patches, the membrane potential was initially stepped from a holding potential of -30 mV to +60 mV for 100 ms and then to various test voltages (sweeps) ranging from +120 mV to -140 mV in steps of 20 mV for 300 ms. To obtain tail currents, the membrane potential was stepped to -100 mV after each test voltage for 300 ms and then relaxed to -30 mV for 2 sec between sweeps (Figure 2). I/V relationships for whole cell instant and steady state current amplitudes were obtained by plotting average current densities at the beginning and at the end of the 300 ms step against the membrane potential (Figure 3).
In order to determine the relative overall open probability (P0), the instantaneous tail currents were normalized to the maximal tail current obtained following the most positive voltage step and plotted against the test voltage. […]
To evaluate the compound effect on CIC-1, when applied directly to the intracellular side of the cell membrane, the half activation voltage, V1/2, was determined from whole cell patches with compound added to the intracellular solution and then compared to V1/2 determined from control cell patches with only vehicle added to the intracellular solution. Additionally, the effect of extracellular added compound was evaluated by determine V1/2 and steady state current amplitudes before and after exchanging the extracellular solution to contain compound.
The difference in half activation voltage of CIC-1 channels, ΔV1/2, was determined as the difference between the cell patches treated intracellularly with compound and control cells patches and is reported in Table 4 below. […]

SMILES	Point increase (%) [1] [%]	ΔV1/2 (mV) (human CIC-1 channels)	average force (AUC) relative to initial force ([1]; Figure 1: 50 µM compound added after 90 min incubation in tubocurarine, 3 muscles)
O=C(O)[C@@H]1CCc2cc(Br)cc(-c3ccon3)c2O1 (single isomer, unassigned) [Compound A-13]	24	–	–
O=C(O)Cn1cc(-c2ccon2)c2cc(Cl)ccc21 [Compound A-4, 2-[5-chloro-3-(1,2-oxazol-3-yl)-1H-indol-1-yl]acetic acid]	12	–	–
O=C(O)Cn1cc(-c2ccon2)c2cc(Br)ccc21 [Compound A-12, 2-[5-bromo-3-(1,2-oxazol-3-yl)-1H-indol-1-yl]acetic acid]	13	–	–
O=C(O)[C@@H]1CCCN1c1ccc(Br)cc1F [Compound A-14, (2S)-1-(4-bromo-2-fluorophenyl)pyrrolidine-2-carboxylic acid]	26	8.4	–
O=C(O)C1CCc2cc(Br)cc(-c3ccon3)c2O1 (stereo not drawn) [Compound A-15, 6-bromo-8-(1,2-oxazol-3-yl)-3,4-dihydro-2H-1-benzopyran-2-carboxylic acid]	–	–	recovered
O=C(O)Cn1ccc2cc(Br)ccc21 [Compound A-24, 2-(5-bromo-1H-indol-1-yl)acetic acid]	10	27.9	–
CC(C(=O)O)n1ccc2cc(Br)ccc21 (stereo not drawn) [Compound A-25, 2-(5-bromo-1H-indol-1-yl)propanoic acid]	–	5.5	–
